In article PMC11322497 (Frontiers in Pharmacology, 2024):

Legend:
[1] = Plasma and liver selvigaltin concentrations after 4 weeks of treatment; format: in vivo; settings: New Zealand White, rabbit, oral, HFD rabbits, 0.3, 1.0, 5.0 mg/kg, read-out: increased levels in liver tissue vs plasma
Procedure: After 1 week (W) of RD, the animals (n = 44) were randomly assigned to the following groups (Table 1B): • Control rabbits continued to receive a RD for 12 weeks and were treated with vehicle for 5 days a week (days 1–5, p.o.) during the last 4 weeks before culling (RD + 4W Veh group); • Rabbits received a HFD for 8 weeks and were culled (HFD 8W group); • Rabbits received a HFD for 12 weeks and were treated with vehicle for 5 days a week (days 1–5, p.o.) during the last 4 weeks before culling (HFD+4W Veh group); • Rabbits received a HFD for 12 weeks and were treated with GB1211 (0.3 mg/kg) for 5 days a week (days 1–5, p.o.) during the last 4 weeks before culling (HFD + 4W 0.3 mg group); • Rabbits received a HFD for 12 weeks and were treated with GB1211 (1.0 mg/kg) for 5 days a week (days 1–5, p.o.) during the last 4 weeks before culling (HFD + 4W 1.0 mg group); • Rabbits received a HFD for 12 weeks and were treated with GB1211 (5.0 mg/kg) for 5 days a week (days 1–5, p.o.) during the last 4 weeks before culling (HFD + 4W 5.0 mg group).
Liver homogenates were prepared by homogenisation of 200 mg liver tissue/ml water using a Fisherbrand™ Homogenizer 150 (Thermo Fisher Scientific, Waltham, MA). […]

[2] = system: high fat diet (HFD) rabbit model of metabolic-associated steatohepatitis (MASH); assay: HFD rabbit study, acute 5-day treatment: liver markers mRNA expression by RT-PCR; format: in vivo, New Zealand White rabbits; settings: 30 mg/kg p.o. 5 days, week 12, mean ± SD, n = 3
Procedure: After 1 week of standard diet, animals (n = 12) were randomly assigned to the following groups (Table 1A): • Control rabbits continued to receive a regular diet (RD) for 12 weeks and were treated for 5 days (days 1–5, p.o.), during the last week before culling, with either vehicle; RD+1W Veh group] or GB1211 (30 mg/kg; RD + 1W 30 mg group); • Rabbits received a high fat diet (HFD) for 12 weeks (RD implemented with 0.5% cholesterol and 2.5% vegetable fat) and were treated for 5 days (days 1–5, p.o.), during the last week before culling, with either vehicle (HFD + 1W Veh group) or GB1211 (30 mg/kg; HFD + 1W 30 mg group).
TRIzol reagent (Life Technologies, Paisley, United Kingdom) and/or RNeasy Mini Kit (Qiagen, Hilden, Germany) were used to isolate total RNA from rabbit liver specimens. RNA concentration and quality were measured using a Nanodrop ND-1000 (Thermo Fisher Scientific) at 260 nm and 280 nm. The OD 260/280 absorbance ratios were between 2.0 and 2.1 for all samples, to confirm RNA integrity and purification. cDNA synthesis was carried out using the iScript™ cDNA Synthesis Kit (Bio-Rad Laboratories, Hercules, CA), with 100 ng of mRNA in 20 µL reaction volume in accordance with the following protocol: 5 min at 25°C, 20 min at 46°C and 5 min at 85°C, followed by refrigeration at 4°C.
Semi-quantitative real-time RT-PCR (qRT-PCR) amplification and detection was performed with SsoAdvanced™ universal SYBR® Supermix and a CFX96 Two-Color Real-Time PCR Detection System (both Bio-Rad Laboratories) with the following thermal cycler conditions: 40 cycles at 95°C for 15 s and 60°C for 1 min. Specific PCR primers for rabbit target genes were designed on sequences available at the National Center for Biotechnology Information GenBank (http://www.ncbi.nlm.nih.gov) or Ensemble Genome (http://www.ensembl.org).
The 18S ribosomal RNA subunit was quantified with a predeveloped assay (Hs99999901_s1, Life Technologies) and used as the housekeeping gene for the relative quantitation of the target genes based on the comparative threshold cycle (Ct) 2^−ΔΔCt method ([Livak and Schmittgen, 2001]), with some modifications. In detail, we used the vehicle control groups as the calibrator in each analysis, so that the calculations would provide the fold-change of the other groups relative to controls.

OC[C@H]1O[C@H](Sc2cncc(Br)c2)[C@H](O)[C@@H](n2cc(-c3cc(F)c(F)c(F)c3)nn2)[C@H]1O [selvigaltin]
Kp at 4 weeks [1]: 50 to 60
CD8 liver mRNA expression ([2]; HFD rabbits): 1.76 ± 0.20 fold-change vs. RD+1W Veh
COL1A1 liver mRNA expression ([2]; HFD rabbits): 20.12 ± 15.24 fold-change vs. RD+1W Veh
COL3A1 liver mRNA expression ([2]; HFD rabbits): 9.96 ± 7.51 fold-change vs. RD+1W Veh
COX-2 liver mRNA expression ([2]; HFD rabbits): 8.81 ± 10.30 fold-change vs. RD+1W Veh
EDN1 liver mRNA expression ([2]; HFD rabbits): 1.32 ± 0.21 fold-change vs. RD+1W Veh
EDNRA liver mRNA expression ([2]; HFD rabbits): 7.73 ± 5.69 fold-change vs. RD+1W Veh
EDNRB liver mRNA expression ([2]; HFD rabbits): 2.23 ± 0.95 fold-change vs. RD+1W Veh
FN1 liver mRNA expression ([2]; HFD rabbits): 0.98 ± 0.14 fold-change vs. RD+1W Veh
FOXP3 liver mRNA expression ([2]; HFD rabbits): 5.15 ± 2.78 fold-change vs. RD+1W Veh
IGF-1 liver mRNA expression ([2]; HFD rabbits): 0.34 ± 0.08 fold-change vs. RD+1W Veh
LGALS3 liver mRNA expression ([2]; HFD rabbits): 116.95 ± 77.56 fold-change vs. RD+1W Veh
PAI-1 liver mRNA expression ([2]; HFD rabbits): 14.10 ± 16.47 fold-change vs. RD+1W Veh
SNAI2 liver mRNA expression ([2]; HFD rabbits): 1.55 ± 0.26 fold-change vs. RD+1W Veh
TBET liver mRNA expression ([2]; HFD rabbits): 0.74 ± 0.14 fold-change vs. RD+1W Veh
TGFβ1 liver mRNA expression ([2]; HFD rabbits): 4.25 ± 2.06 fold-change vs. RD+1W Veh
TGFβ3 liver mRNA expression ([2]; HFD rabbits): 2.97 ± 1.96 fold-change vs. RD+1W Veh
αSMA liver mRNA expression ([2]; HFD rabbits): 5.77 ± 3.34 fold-change vs. RD+1W Veh
CD8 liver mRNA expression ([2]; RD rabbits): 1.14 ± 0.81 fold-change vs. RD+1W Veh
COL1A1 liver mRNA expression ([2]; RD rabbits): 0.82 ± 0.40 fold-change vs. RD+1W Veh
COL3A1 liver mRNA expression ([2]; RD rabbits): 0.47 ± 0.21 fold-change vs. RD+1W Veh
COX-2 liver mRNA expression ([2]; RD rabbits): 2.52 ± 1.59 fold-change vs. RD+1W Veh
EDN1 liver mRNA expression ([2]; RD rabbits): 0.91 ± 0.20 fold-change vs. RD+1W Veh
EDNRA liver mRNA expression ([2]; RD rabbits): 0.89 ± 0.29 fold-change vs. RD+1W Veh
EDNRB liver mRNA expression ([2]; RD rabbits): 0.79 ± 0.19 fold-change vs. RD+1W Veh
FN1 liver mRNA expression ([2]; RD rabbits): 1.05 ± 0.12 fold-change vs. RD+1W Veh
FOXP3 liver mRNA expression ([2]; RD rabbits): 0.86 ± 0.12 fold-change vs. RD+1W Veh
IGF-1 liver mRNA expression ([2]; RD rabbits): 1.01 ± 0.19 fold-change vs. RD+1W Veh
LGALS3 liver mRNA expression ([2]; RD rabbits): 1.27 ± 1.04 fold-change vs. RD+1W Veh
PAI-1 liver mRNA expression ([2]; RD rabbits): 2.63 ± 1.79 fold-change vs. RD+1W Veh
SNAI2 liver mRNA expression ([2]; RD rabbits): 1.01 ± 0.31 fold-change vs. RD+1W Veh
TBET liver mRNA expression ([2]; RD rabbits): 0.75 ± 0.20 fold-change vs. RD+1W Veh
TGFβ1 liver mRNA expression ([2]; RD rabbits): 0.95 ± 0.31 fold-change vs. RD+1W Veh
TGFβ3 liver mRNA expression ([2]; RD rabbits): 0.70 ± 0.08 fold-change vs. RD+1W Veh
αSMA liver mRNA expression ([2]; RD rabbits): 0.96 ± 0.59 fold-change vs. RD+1W Veh
